Tests used:
[1] = target: T1, BKPyV agnoprotein (recombinant 10xHis BK agnoprotein) (Betapolyomavirus hominis, UniProt P03085); assay: carboxyfluorescein release from liposomes, endpoint fluorescence; assay type: biochemical; conditions: recombinant protein pre-incubated with compound 10 min at room temperature; PA/PC liposomes, HBS pH 7.4; compound concentration not in text
T1 construct: full-length, N-terminal 10xHis tag kept (pET19b, codon optimised), expressed in E. coli, purified by Ni-NTA, cation exchange and C4, dissolved in DMSO; SDS-resistant oligomers (copy number undefined); reconstituted in PA/PC liposomes
T1 sequence (P03085 whole entry): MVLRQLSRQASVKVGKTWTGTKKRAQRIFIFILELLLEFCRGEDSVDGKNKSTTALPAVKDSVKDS

[2] = target: T1, BKPyV agnoprotein (recombinant 10xHis BK agnoprotein); assay: as above; assay type: biochemical; conditions: recombinant protein pre-incubated with compound 10 min at room temperature; PA/PC liposomes, HBS pH 7.4; 400 uM rimantadine

SMILES | reduction in CF release [1] | % reduction in channel activity at 400 uM [2]
CCCCCCCCCN1C[C@H](O)[C@@H](O)[C@H](O)[C@H]1CO [NN-DNJ] | Addition of NN-DNJ also led to a significant reduction in agnoprotein mediated CF release | –
CC(N)C12CC3CC(CC(C3)C1)C2 (centres unmarked) [rimantadine] | – | ~ 50%
